Molecular target: Recombinant human JAK1 catalytic domain (Homo sapiens (Human), UniProt P23458)
Test: JAK1 inhibition assay
Assay type: biochemical
Details: semi-quantitative score
Protocol: Plates were washed 6 times with 300 μL per well of a 75 mM phosphoric acid solution and the bottom of the plates was sealed. 40 μL/well of Microscint-20 was added, the top of the plates was sealed and readout was performed using the Topcount (Perkin Elmer). Kinase activity was calculated by subtracting counts per minute (cpm) obtained in the presence of a positive control inhibitor (10 μM staurosporine) from cpm obtained in the presence of vehicle. The ability of a test compound to inhibit this activity was determined as: Percentage inhibition=((cpm determined for sample with test compound present−cpm determined for sample with positive control inhibitor) divided by (cpm determined in the presence of vehicle−cpm determined for sample with positive control inhibitor))*100%.
Dose dilution series were prepared for the compounds enabling the testing of dose-response effects in the JAK1 assay and the calculation of the IC50 for each compound.

Sequence of Recombinant human JAK1 catalytic domain (P23458 850-1154): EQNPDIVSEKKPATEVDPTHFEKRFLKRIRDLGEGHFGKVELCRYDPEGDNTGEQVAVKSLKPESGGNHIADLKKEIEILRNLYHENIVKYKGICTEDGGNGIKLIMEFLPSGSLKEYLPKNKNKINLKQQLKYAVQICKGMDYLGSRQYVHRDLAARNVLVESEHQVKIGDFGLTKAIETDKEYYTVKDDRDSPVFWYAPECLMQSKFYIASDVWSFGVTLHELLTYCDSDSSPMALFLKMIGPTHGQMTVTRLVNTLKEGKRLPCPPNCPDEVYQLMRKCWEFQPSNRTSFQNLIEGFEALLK

An IC50 of over 1000 nM was found for `O=C(Nc1nc2cccc(-c3ccc(N4CCOCC4)cc3)n2n1)C1CC1` [Compound 129, N-(5-(4-morpholinophenyl)-[1,2,4]triazolo[1,5-a]pyridin-2-yl)cyclopropanecarboxamide] in this work.

An IC50 of over 1000 nM was found for `O=C(Nc1nc2cccc(-c3cn(Cc4ccc(C(F)(F)F)nc4)nn3)n2n1)C1CC1` [Compound 188] in this work.

An IC50 of over 1000 nM was found for `CN(CCc1ccccn1)Cc1ccc(-c2cccc3nc(NC(=O)C4CC4)nn23)cc1` [Compound 155, N-(5-(4-((methyl(2-(pyridin-2-yl)ethyl)amino)methyl)phenyl)-[1,2,4]triazolo[1,5-a]pyridin-2-yl)cyclopropanecarboxamide] in this work.

An IC50 of 101 to 500 nM was found for `O=C(Nc1nc2cccc(-c3ccc(OCc4nnn[nH]4)cc3)n2n1)C1CC1` [Compound 158] in this work.

An IC50 of 101 to 500 nM was found for `NC(=O)C1CCN(Cc2ccc(-c3cccc4nc(NC(=O)C5CC5)nn34)cc2)CC1` [Compound 140] in this work.

An IC50 of under 100 nM was found for `O=C(Nc1nc2cccc(-c3cnn(Cc4cccnc4)c3)n2n1)C1CC1` [Compound 185, Cyclopropanecarboxylic Acid [5-(1-pyridin-3-ylmethyl-1H-pyrazol-4-yl)-[1,2,4]triazolo[1,5-a]pyridin-2-yl]-amide] in this work.

An IC50 of over 1000 nM was found for `O=C(Nc1nc2cccc(-c3cnc(N4CCCCC4)nc3)n2n1)C1CC1` [Compound 9, N-(5-(2-(piperidin-1-yl)pyrimidin-5-yl)-[1,2,4]triazolo[1,5-a]pyridin-2-yl)cyclopropanecarboxamide] in this work.

An IC50 of 101 to 500 nM was found for `O=C(Nc1nc2cccc(-c3ccc(-c4cccnc4)nc3)n2n1)C1CC1` [Compound 68, N-(5-(2,3′-bipyridin-5-yl)-[1,2,4]triazolo[1,5-a]pyridin-2-yl)cyclopropanecarboxamide] in this work.

An IC50 of 101 to 500 nM was found for `O=C(Nc1nc2cccc(-c3ccc(C(=O)N4CCC(N5CCOCC5)CC4)cc3)n2n1)C1CC1` [Compound 101, N-(5-(4-(4-morpholinopiperidine-1-carbonyl)phenyl)-[1,2,4]triazolo[1,5-a]pyridin-2-yl)cyclopropanecarboxamide] in this work.

An IC50 of 501 to 1000 nM was found for `CC(=O)NC1CCN(C(=O)Cc2ccc(-c3cccc4nc(NC(=O)C5CC5)nn34)cc2)CC1` [Compound 323, Cyclopropanecarboxylic acid (5-{4-[2-(4-acetylamino-piperidin-1-yl)-2-oxo-ethyl]-phenyl}-[1,2,4]triazolo[1,5-a]pyridin-2-yl)-amide] in this work.

An IC50 of 101 to 500 nM was found for `O=C(Nc1nc2cccc(-c3ccc(OCCc4cccnc4)cc3)n2n1)C1CC1` [Compound 127, N-(5-(4-(2-(pyridin-3-yl)ethoxy)phenyl)-[1,2,4]triazolo[1,5-a]pyridin-2-yl)cyclopropanecarboxamide] in this work.

An IC50 of 101 to 500 nM was found for `O=C(Nc1nc2cccc(-c3ccc(NCc4ccccn4)nc3)n2n1)C1CC1` [Compound 171, N-(5-(6-(pyridin-2-ylmethylamino)pyridin-3-yl)-[1,2,4]triazolo[1,5-a]pyridin-2-yl)cyclopropanecarboxamide] in this work.

An IC50 of 101 to 500 nM was found for `O=C(Nc1nc2cccc(-c3ccc(C(=O)N4CCC(CCN5CCOCC5)CC4)cc3)n2n1)C1CC1` [Compound 94, N-(5-(4-(4-(2-morpholinoethyl)piperidine-1-carbonyl)phenyl)-[l,2,4]triazolo[1,5-a]pyridin-2-yl)cyclopropanecarboxamide] in this work.

An IC50 of 501 to 1000 nM was found for `CN(Cc1ccc(-c2cncnc2)cc1)Cc1ccc(-c2cccc3nc(NC(=O)C4CC4)nn23)cc1` [Compound 161, N-(5-(4-((methyl(4-(pyrimidin-5-yl)benzyl)amino)methyl)phenyl)-[1,2,4]triazolo[1,5-a]pyridin-2-yl)cyclopropanecarboxamide] in this work.

An IC50 of 101 to 500 nM was found for `O=C(Nc1nc2cccc(-c3ccc(NCCC4CCOCC4)nc3)n2n1)C1CC1` [Compound 93, N-(5-(6-(2-(tetrahydro-2H-pyran-4-yl)ethylamino)pyridin-3-yl)-[1,2,4]triazolo[1,5-a]pyridin-2-yl)cyclopropanecarboxamide] in this work.

An IC50 of 101 to 500 nM was found for `O=C(Nc1nc2cccc(-c3ccc(S(=O)(=O)Cc4cccnc4)cc3)n2n1)C1CC1` [Compound 195, N-(5-(4-(pyridin-3-ylmethylsulfonyl)phenyl)-[1,2,4]triazolo[1,5-a]pyridin-2-yl)cyclopropanecarboxamide] in this work.

An IC50 of over 1000 nM was found for `CN(Cc1ccccc1)C1CCN(C(=O)c2ccc(-c3cccc4nc(NC(=O)C5CC5)nn34)cc2)CC1` [Compound 103, N-(5-(4-(4-(benzyl(methyl)amino)piperidine-1-carbonyl)phenyl)-[1,2,4]triazolo[1,5-a]pyridin-2-yl)cyclopropanecarboxamide] in this work.

An IC50 of over 1000 nM was found for `CN(Cc1cccnc1)c1ccc(-c2cccc3nc(NC(=O)C4CC4)nn23)cc1` [Compound 162, N-(5-(4-(methyl(pyridin-3-ylmethyl)amino)phenyl)-[1,2,4]triazolo[1,5-a]pyridin-2-yl)cyclopropanecarboxamide] in this work.

An IC50 of 101 to 500 nM was found for `CN1CCN(Cc2ccc(COc3ccc(-c4cccc5nc(NC(=O)C6CC6)nn45)cc3)cc2)CC1` [Compound 126, N-(5-(4-(4-((4-methylpiperazin-1-yl)methyl)benzyloxy)phenyl)-[1,2,4]triazolo[1,5-a]pyridin-2-yl)cyclopropanecarboxamide] in this work.

An IC50 of 101 to 500 nM was found for `O=C(Nc1ccc(-c2cccc3nc(NC(=O)C4CC4)nn23)cc1)C1CCCCC1` [Compound 45, N-(4-(2-(cyclopropanecarboxamido)-[1,2,4]triazo[1,5-a]pyridin-5-yl)phenyl)cyclohexanecarbox-amide] in this work.

An IC50 of 101 to 500 nM was found for `O=C(NCCCN1CCOCC1)c1ccc(-c2cccc3nc(NC(=O)C4CC4)nn23)cc1` [Compound 81, 4-(2-(cyclopropanecarboxamido)-[1,2,4]triazolo[1,5-a]pyridin-5-yl)-N-(3-morpholinopropyl)benzamide] in this work.

An IC50 of 101 to 500 nM was found for `O=C(Nc1nc2cccc(-c3ccc(C(=O)N4CCC(c5noc6cc(F)ccc56)CC4)cc3)n2n1)C1CC1` [Compound 149, N-(5-(4-(4-(6-fluorobenzo[d]isoxazol-3-yl)piperidine-1-carbonyl)phenyl)-[1,2,4]triazolo[1,5-a]pyridin-2-yl)cyclopropanecarboxamide] in this work.

An IC50 of 101 to 500 nM was found for `O=C(Nc1nc2cccc(-c3ccc(C(=O)N4CCC(Oc5cccnc5)CC4)cc3)n2n1)C1CC1` [Compound 110, N-(5-(4-(4-(pyridin-3-yloxy)piperidine-1-carbonyl)phenyl)-[1,2,4]triazolo[1,5-a]pyridin-2-yl)cyclopropanecarboxamide] in this work.

An IC50 of 101 to 500 nM was found for `COc1ccc(CCN(C)C(=O)c2ccc(-c3cccc4nc(NC(=O)C5CC5)nn34)cc2)cc1OC` [Compound 105, 4-(2-(cyclopropanecarboxamido)-[1,2,4]triazolo[1,5-a]pyridin-5-yl)-N-(3,4-dimethoxyphenethyl)-N-methylbenzamide] in this work.

An IC50 of 101 to 500 nM was found for `N#CCN(CCc1ccccc1)C(=O)c1ccc(-c2cccc3nc(NC(=O)C4CC4)nn23)cc1` [Compound 181, N-(cyanomethyl)-4-(2-(cyclopropanecarboxamido)-[1,2,4]triazolo[1,5-a]pyridin-5-yl)-N-phenethylbenzamide] in this work.

An IC50 of over 1000 nM was found for `O=C(Nc1nc2cccc(-c3ccnc(N4CCC(CCc5ccccc5)CC4)c3)n2n1)C1CC1` [Compound 112, N-(5-(2-(4-phenethylpiperidin-1-yl)pyridin-4-yl)-[1,2,4]triazolo[1,5-a]pyridin-2-yl)cyclopropanecarboxamide] in this work.

An IC50 of 101 to 500 nM was found for `O=C(Nc1nc2cccc(-c3ccc(CN4CCN(c5ccccn5)CC4)cc3)n2n1)C1CC1` [Compound 142, N-(5-(4-((4-(pyridin-2-yl)piperazin-1-yl)methyl)phenyl)-[1,2,4]triazolo[1,5-a]pyridin-2-yl)cyclopropanecarboxamide] in this work.

An IC50 of 101 to 500 nM was found for `O=C(Nc1nc2cccc(-c3ccc(C(=O)N(Cc4ccc(F)cc4)CC4CCCO4)cc3)n2n1)C1CC1` (stereo not shown) [Compound 153, 4-(2-(cyclopropanecarboxamido)-[1,2,4]triazolo[1,5-a]pyridin-5-yl)-N-(4-fluorobenzyl)-N-((tetrahydrofuran-2-yl)methyl)benzamide] in this work.

An IC50 of 101 to 500 nM was found for `O=C(Nc1nc2cccc(-c3ccc(C(=O)N4CCC(CCc5ccccc5)CC4)cc3)n2n1)C1CC1` [Compound 147] in this work.

An IC50 of 101 to 500 nM was found for `CCCc1cc(C(=O)Nc2ccc(-c3cccc4nc(NC(=O)C5CC5)nn34)cc2)n(C)n1` [Compound 69] in this work.

An IC50 of 101 to 500 nM was found for `CC(C)N(Cc1ccc(N2CCCCC2)cc1)C(=O)c1ccc(-c2cccc3nc(NC(=O)C4CC4)nn23)cc1` [Compound 135, 4-(2-(cyclopropanecarboxamido)-[1,2,4]triazolo[1,5-a]pyridin-5-yl)-N-isopropyl-N-(4-(piperidin-1-yl)benzyl)benzamide] in this work.

An IC50 of 101 to 500 nM was found for `O=C(Nc1nc2cccc(-c3ccc(OCc4ccc(N5CCOCC5)nc4)cc3)n2n1)C1CC1` [Compound 165] in this work.

An IC50 of 101 to 500 nM was found for `O=C(Nc1nc2cccc(-c3ccc(CN4CCN(c5ncccn5)CC4)cc3)n2n1)C1CC1` [Compound 143, N-(5-(4-((4-(pyrimidin-2-yl)piperazin-1-yl)methyl)phenyl)-[1,2,4]triazolo[1,5-a]pyridin-2-yl)cyclopropanecarboxamide] in this work.

An IC50 of 101 to 500 nM was found for `CCOCC1CCN(C(=O)c2ccc(-c3cccc4nc(NC(=O)C5CC5)nn34)cc2)CC1` [Compound 73] in this work.

An IC50 of 501 to 1000 nM was found for `O=C(Nc1ccc(-c2cccc3nc(NC(=O)C4CC4)nn23)cn1)c1ccccc1` [Compound 44, N-(5-(2-(cyclopropanecarboxamido)-[1,2,4]triazolo[1,5-a]pyridin-5-yl)pyridin-2-yl)benzamide] in this work.

An IC50 of 101 to 500 nM was found for `Cc1cc(CN(C)Cc2ccc(-c3cccc4nc(NC(=O)C5CC5)nn34)cc2)nn1C` [Compound 160, N-(5-(4-((((1,5-dimethyl-1H-pyrazol-3-yl)methyl)(methyl)amino)methyl)phenyl)-[1,2,4]triazolo[1,5-a]pyridin-2-yl)cyclopropanecarboxamide] in this work.

An IC50 of 101 to 500 nM was found for `O=C(Nc1nc2cccc(-c3ccc(C(=O)N4CCC(O)(c5ccc(Cl)cc5)CC4)cc3)n2n1)C1CC1` [Compound 132] in this work.

Reference: patent US10206907B2, “Compounds useful for the treatment of degenerative and inflammatory diseases” (GALAPAGOS NV, priority 2008, dated 2019)
